Experimental data: patent publication US10005767B2, “Compositions and methods for inhibition of the JAK pathway” (Rigel Pharmaceuticals, Inc., priority 2009, dated 2018)
Where a name gives a salt, the structure may show the parent alone.

The compounds below were run on human primary T-cells, IL-2 stimulated proliferation (JAK-1 and JAK-3 dependent; reported as JAK3 activity) (assay: Human primary T-cell proliferation stimulated by IL-2 (Example 3)). Settings: Homo sapiens, T-cell, tested under conditions described in Example 3 (IL-2 stimulated human primary T-cell proliferation); read-out: ability to inhibit JAK3 activity, IC50 range (Table V).
Assay type: cell-based
Procedure, shortened: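 Peripheral-blood human T-cells pre-activated via TCR/CD28, IL-2-starved overnight, then cultured 72 h at 37 °C with compound in Yssel's medium containing IL-2 (80 U/mL in cell suspension). Proliferation read as viable-cell ATP by CellTiter-Glo luminescence; reduction versus control taken as JAK pathway inhibition.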

Q: How did the IC50 turn out when `Cc1cnc(Nc2ccc(C(=O)NC3CCC3)cc2)nc1Nc1ccc2oc(=O)[nH]c2c1` [Compound I-138, N-Cyclobutyl-4-[5-methyl-4-(2-oxo-2,3-dihydro-benzooxazol-5-ylamino)-pyrimidin-2-ylamino]-benzamide formic acid salt] was run?
A: < 500 nM

Q: Which IC50 does the source give for `Cc1cnc(Nc2ccc(C(=O)NC(C)C)cc2)nc1Nc1ccc2oc(=O)[nH]c2c1` [Compound I-139, N-Isopropyl-4-[5-methyl-4-(2-oxo-2,3-dihydro-benzooxazol-5-ylamino)-pyrimidin-2-ylamino]-benzamide] here?
A: < 500 nM

Q: Which IC50 does the source give for `Cc1cnc(Nc2ccc(C(N)=O)c(Cl)c2)nc1Nc1ccc2oc(=O)[nH]c2c1` [Compound I-141, 2-Chloro-4-[5-methyl-4-(2-oxo-2,3-dihydro-benzooxazol-5-ylamino)-pyrimidin-2-ylamino]-benzamide trifluoroacetic acid salt] here?
A: < 500 nM

Q: How did the IC50 turn out when `CCC(=O)n1c(=O)oc2ccc(Nc3nc(Nc4ccc(C(N)=O)cc4)ncc3C)cc21` [Compound I-145, 4-[5-Methyl-4-(2-oxo-3-propionyl-2,3-dihydro-benzooxazol-5-ylamino)-pyrimidin-2-ylamino]-benzamide] was run?
A: < 500 nM

Q: Which IC50 does the source give for `Cc1cnc(Nc2ccc(C(N)=O)cc2)nc1Nc1ccc2oc(=O)n(COP(=O)(OC(C)(C)C)OC(C)(C)C)c2c1` [Compound I-146, di-tert-butyl (5-(2-(4-carbamoylphenylamino)-5-methylpyrimidin-4-ylamino)-2-oxobenzo[d]oxazol-3(2H)-yl)methyl phosphate] here?
A: 500 to 5000 nM

Q: With `Cc1cnc(Nc2ccc(C(N)=O)cc2)nc1Nc1ccc2oc(=O)n(COP(=O)(O)O)c2c1` [Compound I-147, (5-(2-(4-carbamoylphenylamino)-5-methylpyrimidin-4-ylamino)-2-oxobenzo[d]oxazol-3(2H)-yl)methyl dihydrogen phosphate] as the compound, how does the IC50 read?
A: < 500 nM

Q: `Cc1cnc(Nc2ccc(C(=O)NC3CCC3)cc2)nc1Nc1ccc2oc(=O)n(COP(=O)(O)O)c2c1` [Compound I-150, (5-(2-(4-(cyclobutylcarbamoyl)phenylamino)-5-methylpyrimidin-4-ylamino)-2-oxobenzo[d]oxazol-3(2H)-yl)methyl dihydrogen phosphate] was tested. Which IC50 did it give?
A: < 500 nM

Q: With `Cc1cnc(Nc2ccc(Cl)c(C(F)(F)F)c2)nc1Nc1ccc2oc(=O)[nH]c2c1` [Compound I-153, 5-[2-(4-Chloro-3-trifluoromethyl-phenylamino)-5-methyl-pyrimidin-4-ylamino]-3H-benzooxazol-2-one] as the compound, how does the IC50 read?
A: < 500 nM

Q: Which IC50 does the source give for `Cc1ccc(Nc2ncc(C)c(Nc3ccc4oc(=O)[nH]c4c3)n2)cc1C(F)(F)F` [Compound I-154, 5-[5-Methyl-2-(4-methyl-3-trifluoromethyl-phenylamino)-pyrimidin-4-ylamino]-3H-benzooxazol-2-one] here?
A: < 500 nM

Q: With `CSc1ccc(Nc2ncc(C)c(Nc3ccc4oc(=O)[nH]c4c3)n2)cc1C(F)(F)F` [Compound I-155, 5-[5-Methyl-2-(4-methylsulfanyl-3-trifluoromethyl-phenylamino)-pyrimidin-4-ylamino]-3H-benzooxazol-2-one] as the compound, how does the IC50 read?
A: < 500 nM

Q: Which IC50 does the source give for `Cc1cnc(Nc2ccc(C(N)=O)c(N3CCC(C)CC3)c2)nc1Nc1ccc2oc(=O)[nH]c2c1` [Compound I-156, 4-[5-Methyl-4-(2-oxo-2,3-dihydro-benzooxazol-5-ylamino)-pyrimidin-2-ylamino]-2-(4-methyl-piperidin-1-yl)-benzamide] here?
A: < 500 nM

Q: With `Cc1cnc(Nc2cccc(S(=O)(=O)C3CCCC3)c2)nc1Nc1ccc2oc(=O)[nH]c2c1` [Compound I-157, 5-[2-(3-Cyclopentanesulfonyl-phenylamino)-5-methyl-pyrimidin-4-ylamino]-3H-benzooxazol-2-one] as the compound, how does the IC50 read?
A: < 500 nM

Q: Which IC50 does the source give for `Cc1cnc(Nc2cccc(C(F)(F)F)c2)nc1Nc1ccc2oc(=O)[nH]c2c1` [Compound I-158, 5-[5-Methyl-2-(3-trifluoromethyl-phenylamino)-pyrimidin-4-ylamino]-3H-benzooxazol-2-one] here?
A: < 500 nM

Q: Which IC50 does the source give for `COC(=O)c1ccc(Nc2ncc(C)c(Nc3ccc4oc(=O)[nH]c4c3)n2)cc1C` [Compound I-159, 2-Methyl-4-[5-methyl-4-(2-oxo-2,3-dihydro-benzooxazol-5-ylamino)-pyrimidin-2-ylamino]-benzoic acid methyl ester] here?
A: < 500 nM

Q: Which IC50 does the source give for `Cc1cnc(Nc2ccc(C(F)(F)F)cc2)nc1Nc1ccc2oc(=O)[nH]c2c1` [Compound I-160, 5-[5-Methyl-2-(4-trifluoromethyl-phenylamino)-pyrimidin-4-ylamino]-3H-benzooxazol-2-one] here?
A: < 500 nM

Q: `Cc1cnc(Nc2ccc(OC(F)(F)F)c(C(F)(F)F)c2)nc1Nc1ccc2oc(=O)[nH]c2c1` [Compound I-161, 5-[5-Methyl-2-(4-trifluoromethoxy-3-trifluoromethyl-phenylamino)-pyrimidin-4-ylamino]-3H-benzooxazol-2-one] was tested. Which IC50 did it give?
A: < 500 nM

Q: `Cc1cnc(Nc2ccc(F)c(OC(F)(F)F)c2)nc1Nc1ccc2oc(=O)[nH]c2c1` [Compound I-163, 5-[2-(4-Fluoro-3-trifluoromethoxy-phenylamino)-5-methyl-pyrimidin-4-ylamino]-3H-benzooxazol-2-one] was tested. Which IC50 did it give?
A: < 500 nM

Q: With `COCCOc1ccc(Nc2ncc(C)c(Nc3ccc4oc(=O)[nH]c4c3)n2)cc1C(F)(F)F` [Compound I-165, 5-{2-[4-(2-Methoxy-ethoxy)-3-trifluoromethyl-phenylamino]-5-methyl-pyrimidin-4-ylamino}-3H-benzooxazol-2-one] as the compound, how does the IC50 read?
A: < 500 nM

Q: How did the IC50 turn out when `Cc1cc(Nc2ncc(C)c(Nc3ccc4oc(=O)[nH]c4c3)n2)ccc1C(C)C` [Compound I-166, 5-[2-(4-Isopropyl-3-methyl-phenylamino)-5-methyl-pyrimidin-4-ylamino]-3H-benzooxazol-2-one] was run?
A: < 500 nM

Q: With `Cc1cnc(Nc2ccc(C(F)(F)F)c(Cl)c2)nc1Nc1ccc2oc(=O)[nH]c2c1` [Compound I-167, 5-[2-(3-Chloro-4-trifluoromethyl-phenylamino)-5-methyl-pyrimidin-4-ylamino]-3H-benzooxazol-2-one] as the compound, how does the IC50 read?
A: < 500 nM

Q: Which IC50 does the source give for `CCOc1ccc(Nc2ncc(C)c(Nc3ccc4oc(=O)[nH]c4c3)n2)cc1C(F)(F)F` [Compound I-168, 5-[2-(4-Ethoxy-3-trifluoromethyl-phenylamino)-5-methyl-pyrimidin-4-ylamino]-3H-benzooxazol-2-one] here?
A: 500 to 5000 nM

Q: Which IC50 does the source give for `Cc1cnc(Nc2cc(C(F)(F)F)cc(C(F)(F)F)c2)nc1Nc1ccc2oc(=O)[nH]c2c1` [Compound I-169, 5-[2-(3,5-Bis-trifluoromethyl-phenylamino)-5-methyl-pyrimidin-4-ylamino]-3H-benzooxazol-2-one] here?
A: < 500 nM

Q: Which IC50 does the source give for `Cc1cc(Nc2ncc(C)c(Nc3ccc4oc(=O)[nH]c4c3)n2)ccc1C(=O)O` [Compound I-170, 2-Methyl-4-[5-methyl-4-(2-oxo-2,3-dihydro-benzooxazol-5-ylamino)-pyrimidin-2-ylamino]-benzoic acid] here?
A: > 10000 nM

Q: For `CCNC(=O)c1ccc(Nc2ncc(C)c(Nc3ccc4oc(=O)[nH]c4c3)n2)cc1C` [Compound I-171, N-Ethyl-2-methyl-4-[5-methyl-4-(2-oxo-2,3-dihydro-benzooxazol-5-ylamino)-pyrimidin-2-ylamino]-benzamide], which IC50 is on record?
A: < 500 nM

Q: For `Cc1cnc(Nc2ccc(Cl)cc2)nc1Nc1ccc2oc(=O)[nH]c2c1` [Compound I-172, 5-[2-(4-Chloro-phenylamino)-5-methyl-pyrimidin-4-ylamino]-3H-benzooxazol-2-one], which IC50 is on record?
A: < 500 nM

Q: For `Cc1cnc(Nc2cccc(Cl)c2)nc1Nc1ccc2oc(=O)[nH]c2c1` [Compound I-173, 5-[2-(3-Chloro-phenylamino)-5-methyl-pyrimidin-4-ylamino]-3H-benzooxazol-2-one], which IC50 is on record?
A: < 500 nM

Q: Which IC50 does the source give for `Cc1cnc(Nc2ccccc2)nc1Nc1ccc2oc(=O)[nH]c2c1` [Compound I-174, 5-(5-Methyl-2-phenylamino-pyrimidin-4-ylamino)-3H-benzooxazol-2-one] here?
A: < 500 nM

Q: How did the IC50 turn out when `Cc1cnc(Nc2cccc(Br)c2)nc1Nc1ccc2oc(=O)[nH]c2c1` [Compound I-175, 5-[2-(3-Bromo-phenylamino)-5-methyl-pyrimidin-4-ylamino]-3H-benzooxazol-2-one] was run?
A: < 500 nM

Q: With `Cc1cc(Nc2ncc(C)c(Nc3ccc4oc(=O)[nH]c4c3)n2)c(C)cc1Cl` [Compound I-176, 5-[2-(4-Chloro-2,5-dimethyl-phenylamino)-5-methyl-pyrimidin-4-ylamino]-3H-benzooxazol-2-one] as the compound, how does the IC50 read?
A: 500 to 5000 nM

Q: `CC(=O)Nc1ccc(Nc2ncc(C)c(Nc3ccc4oc(=O)[nH]c4c3)n2)cc1C(F)(F)F` [Compound I-177, N-{4-[5-Methyl-4-(2-oxo-2,3-dihydro-benzooxazol-5-ylamino)-pyrimidin-2-ylamino]-2-trifluoromethyl-phenyl}-acetamide] was tested. Which IC50 did it give?
A: < 500 nM

Q: How did the IC50 turn out when `Cc1ccc(Nc2ncc(C)c(Nc3ccc4oc(=O)[nH]c4c3)n2)cc1C` [Compound I-178, 5-[2-(3,4-Dimethyl-phenylamino)-5-methyl-pyrimidin-4-ylamino]-3H-benzooxazol-2-one] was run?
A: < 500 nM

Q: How did the IC50 turn out when `Cc1cnc(Nc2ccc(OCC3CCCCC3)c(C(F)(F)F)c2)nc1Nc1ccc2oc(=O)[nH]c2c1` [Compound I-179, 5-[2-(4-Cyclohexylmethoxy-3-trifluoromethyl-phenylamino)-5-methyl-pyrimidin-4-ylamino]-3H-benzooxazol-2-one] was run?
A: > 10000 nM

Same assay, conditions: tested under conditions described in Example 3 (IL-2 stimulated human primary T-cell proliferation); read-out: ability to inhibit JAK3 activity, IC50 range (Table V)

Q: For `Cc1cnc(Nc2ccc(C(=O)NC3CCC3)cc2)nc1Nc1ccc2oc(=O)n(COP(=O)(OC(C)(C)C)OC(C)(C)C)c2c1` [Compound I-152, di-tert-butyl(5-(2-(4-(cyclobutylcarbamoyl)phenylamino)-5-methylpyrimidin-4-ylamino)-2-oxobenzo[d]oxazol-3(2H)-yl)methyl phosphate], which IC50 is on record?
A: 500 to 5000 nM

Q: For `Cc1cnc(Nc2cc(F)cc(C(F)(F)F)c2)nc1Nc1ccc2oc(=O)[nH]c2c1` [Compound I-162, 5-[2-(3-Fluoro-5-trifluoromethyl-phenylamino)-5-methyl-pyrimidin-4-ylamino]-3H-benzooxazol-2-one triflouroacetate salt], which IC50 is on record?
A: > 10000 nM
